Assay results: PMC8230474, “Synthesis of Novel Acyl Derivatives of 3-(4,5,6,7-Tetrabromo-1H-benzimidazol-1-yl)propan-1-ols—Intracellular TBBi-Based CK2 Inhibitors with Proapoptotic Properties” (International Journal of Molecular Sciences, 2021)
Like-named read-outs stand apart in the source and are kept apart here.

What was measured:
[1] = target: human CK2 catalytic subunit (CK2α) (Homo sapiens, UniProt P68400); experiment: Radiometric (P81 filter isotopic) kinase assay, CK2 catalytic subunit; assay type: biochemical; conditions: for remaining activity at 5 µM: 5 µM compound; for remaining activity at 5 µM / remaining activity at 10 µM: read-out: Residual Activity of the Enzyme CK2α; for remaining activity at 10 µM: 10 µM compound
[2] = target: CK2 holoenzyme (CK2 α2β2) (Homo sapiens, UniProt P68400); experiment: Radiometric (P81 filter isotopic) kinase assay, CK2 holoenzyme; assay type: biochemical; conditions: for remaining activity at 5 µM: 5 µM compound; for remaining activity at 5 µM / remaining activity at 10 µM: read-out: Residual Activity of the Enzyme CK2 α2β2; for remaining activity at 10 µM: 10 µM compound; for Ki: calculated from IC50 by Cheng and Prusoff equation
PIM1 = PIM1 (Homo sapiens, UniProt P11309); experiment: Radiometric (P81 filter isotopic) kinase assay, PIM1; assay type: biochemical; conditions: for remaining activity at 5 µM: 5 µM compound; for remaining activity at 5 µM / remaining activity at 10 µM: read-out: Residual Activity of the Enzyme PIM1; for remaining activity at 10 µM: 10 µM compound; for Ki: calculated from IC50 by Cheng and Prusoff equation
MCF-7 cells [3] = experiment: MTT viability assay, MCF-7; assay type: cell-based; conditions: Homo sapiens
Experimental: (§1) To test the anti-cancer effect of the TBBi derivatives, we treated the MCF-7 and MDA-MB-231 cells with the newly synthesized esters and previously reported compounds [34, 57] at the concentration range of 3.125 to 200 µM for 24 h, 48 h and 72 h. Additionally, the range of concentrations was extended by additional lower concentrations in MCF-7 for compound 4 with the minimum concentration of 0.195 µM. […] The EC50 values, describing the half maximal effective concentration of each tested compound, were calculated and are summarized in Table 2. […] We observed that the EC50 values increase in both cell lines with the elongation of fatty acids chain length in the tested compounds, thus strongly correlating with the decrease of their solubility in biological media as characterized by logS parameter (Table 2). The second reason for the decreased biological activity of the longer-chain aliphatic esters might be attributed to their greater resistance toward intracellular hydrolysis, which directly influences the slower release of the active form of the corresponding CK2 inhibitors. […] However, none of the tested compounds, except for compound 5, decreased the viability of both cell lines in a time-dependent manner (Figure 4).
(§2) MCF-7 and MDA-MB-231 were cultured in high-glucose Dulbecco’s modified Eagle medium (DMEM, Lonza, Basel, Switzerland) supplemented with 10% fetal bovine serum (FBS, EuroClone, Siziano, Italy)), 2 mM L-glutamine, and antibiotics (100 U/mL penicillin, 100 µg/mL streptomycin) (Sigma-Aldrich Chemical Company (St. Louis, MO, USA). Cells were grown in 75-cm^2 cell culture flasks (Sarstedt, Nümbrecht, Germany) in a humidified atmosphere of CO2/air (5%/95%) at 37 °C. All the experiments were performed in exponentially growing cultures. Stock solutions of the test compounds were prepared in DMSO and stored in −80 °C for a maximum of one month. For the cytotoxicity studies, stock solutions of the tested compounds were diluted 200-fold with the proper culture medium to obtain the final concentrations.
(§3) After incubation with the tested compounds, an MTT test was performed as described previously. Optical densities were measured at 570 nm using BioTek microplate reader (Winooski, VT, USA). All measurements were carried out in a minimum of three biological replicates.

MDA-MB-231 cells = experiment: MTT viability assay, MDA-MB-231; assay type: cell-based; conditions: Homo sapiens
Experimental: as §1, §2, §3

MCF-7 cells [4] = experiment: Cell cycle progression by flow cytometry, MCF-7; assay type: cell-based, human; conditions: MCF-7, 72 h, compound at its EC50
[5] = MCF7, 24 h, read-out: EC50 ± SD MCF-7
[6] = MCF7, 48 h, read-out: EC50 ± SD MCF-7
[7] = MCF7, 72 h, read-out: EC50 ± SD MCF-7
[8] = 24 h, read-out: EC50 ± SD MDA-MB-231
[9] = 48 h, read-out: EC50 ± SD MDA-MB-231
[10] = 72 h, read-out: EC50 ± SD MDA-MB-231
[11] = MCF7, 24 h, 48 h and 72 h, read-out: EC50 MCF-7
[12] = 24 h, 48 h and 72 h, read-out: EC50 MDA-MB-231

PIM1, sequence (P11309 whole entry, species assumed): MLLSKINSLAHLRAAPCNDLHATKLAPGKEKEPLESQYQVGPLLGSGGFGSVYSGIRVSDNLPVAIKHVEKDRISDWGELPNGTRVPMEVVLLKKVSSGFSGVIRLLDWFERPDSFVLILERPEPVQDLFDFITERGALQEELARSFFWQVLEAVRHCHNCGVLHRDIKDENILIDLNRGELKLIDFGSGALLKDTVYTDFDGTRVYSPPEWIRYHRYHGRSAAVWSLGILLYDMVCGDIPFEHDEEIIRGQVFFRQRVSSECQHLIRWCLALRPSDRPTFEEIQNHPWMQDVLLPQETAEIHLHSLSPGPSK
human CK2 catalytic subunit (CK2α), sequence (P68400 whole entry): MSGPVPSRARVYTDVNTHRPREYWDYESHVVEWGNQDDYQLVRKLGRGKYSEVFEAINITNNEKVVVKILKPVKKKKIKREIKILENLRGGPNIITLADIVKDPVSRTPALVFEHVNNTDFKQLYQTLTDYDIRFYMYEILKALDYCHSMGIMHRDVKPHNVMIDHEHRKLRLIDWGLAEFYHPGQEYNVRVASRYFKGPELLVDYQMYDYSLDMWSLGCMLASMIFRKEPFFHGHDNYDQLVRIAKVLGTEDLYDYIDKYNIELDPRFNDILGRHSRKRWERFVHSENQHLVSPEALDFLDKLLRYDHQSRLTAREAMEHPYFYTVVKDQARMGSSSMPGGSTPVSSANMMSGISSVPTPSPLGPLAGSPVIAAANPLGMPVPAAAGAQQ
CK2 holoenzyme (CK2 α2β2), sequence (P68400 whole entry): as above
CK2 holoenzyme (CK2 α2β2), sequence (P67870 whole entry partner): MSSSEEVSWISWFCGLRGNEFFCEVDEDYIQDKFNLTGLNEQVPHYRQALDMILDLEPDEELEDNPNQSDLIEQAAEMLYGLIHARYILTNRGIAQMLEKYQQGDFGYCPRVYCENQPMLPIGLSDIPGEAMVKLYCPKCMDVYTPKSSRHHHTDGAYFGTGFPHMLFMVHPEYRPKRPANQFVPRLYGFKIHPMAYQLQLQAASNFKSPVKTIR

Row | Compound | remaining activity at 5 µM [1] [%] | remaining activity at 10 µM [1] [%] | remaining activity at 5 µM [2] [%] | remaining activity at 10 µM [2] [%] | remaining activity at 5 µM (PIM1) [%] | remaining activity at 10 µM (PIM1) [%] | Ki (PIM1) [µM] | EC50 (MCF-7 cells [3]; [5]) [µM] | EC50 (MCF-7 cells [3]; [6]) [µM] | EC50 (MCF-7 cells [3]; [7]) [µM] | EC50 (MDA-MB-231 cells; [8]) [µM] | EC50 (MDA-MB-231 cells; [9]) [µM] | EC50 (MDA-MB-231 cells; [10]) [µM] | melting point [°C] | cells in G1 (MCF-7 cells [4]) [%] | cells in G2M (MCF-7 cells [4]) [%] | cells in S (MCF-7 cells [4]) [%] | further results
1 | Cc1nc2c(Br)c(Br)c(Br)c(Br)c2n1CCCO [Compound 5] | 26.1 ± 3.5 | 16.3 ± 1 | 14.2 ± 2 | 9.1 ± 0.6 | 9.3 ± 2.6 | 3.4 ± 0.3 | 0.15 ± 0.08 | 17.6 ± 6.35 | 16 ± 5.31 | 4.9 ± 2.71 | 57.8 ± 20.8 | 21 ± 9.85 | 9.99 ± 0.44 | 227 to 230 | 60.2 | 13.5 | 26.3 | Ki ([1]; calculated from IC50 by Cheng and Prusoff equation): 0.2 ± 0.08 µM; Ki [2]: 0.05 ± 0.01 µM
2 | OCCCn1cnc2c(Br)c(Br)c(Br)c(Br)c21 [Compound 2] |  |  |  |  | 17.2 ± 2.3 | 10.1 ± 1 | 0.42 ± 0.02 | 24.1 ± 1.39 | 20.1 ± 1.36 | 19.6 ± 1.68 | 54.6 ± 4.32 | 27.2 ± 0.49 | 20.6 ± 0.86 |  | 51.0 | 14.4 | 34.6 | 
3 | Cc1nc2c(Br)c(Br)c(Br)c(Br)c2[nH]1 [Compound 4, 4,5,6,7-tetrabromo-2-methyl-1H-benzimidazole, reference compound] | 18.8 ± 1.1 | 7.7 ± 3.3 | 6 ± 0.9 | 2.9 ± 0.2 | 8 ± 0.9 | 4.5 ± 0.2 | 0.21 ± 0.02 | 4.12 ± 0.03 | 4.2 ± 0.29 | 2.66 ± 0.19 | 12.8 ± 6.6 | 5.35 ± 0.82 | 4.73 ± 0.48 |  | 53.6 | 16.7 | 29.7 | Ki [2]: 0.11 ± 0.04 µM

More lines, main results first:

Row | remaining activity at 5 µM [1] [%] | remaining activity at 10 µM [1] [%] | remaining activity at 5 µM [2] [%] | remaining activity at 10 µM [2] [%] | remaining activity at 5 µM (PIM1) [%] | remaining activity at 10 µM (PIM1) [%] | Ki (PIM1) [µM] | EC50 (MCF-7 cells [3]; [5]) [µM] | EC50 (MCF-7 cells [3]; [6]) [µM] | EC50 (MCF-7 cells [3]; [7]) [µM] | EC50 (MDA-MB-231 cells; [8]) [µM] | EC50 (MDA-MB-231 cells; [9]) [µM] | EC50 (MDA-MB-231 cells; [10]) [µM] | melting point [°C] | Compound | cells in G1 (MCF-7 cells [4]) [%] | cells in G2M (MCF-7 cells [4]) [%] | cells in S (MCF-7 cells [4]) [%] | further results
4 | 0 | 0 | 0 | 0 | 2.3 ± 0.1 |  |  |  |  |  |  |  |  |  | O=C(O)c1ccc2c(c1)nc(Nc1cccc(Cl)c1)c1ccncc12 [CX-4945, silmitasertib, reference compound] | 33.6 | 22.0 | 44.4 | 
5 |  |  |  |  |  |  |  | > 100 | > 100 | > 100 | > 100 | > 100 | > 100 | 59 to 60 | CCCCCCCCCCCC(=O)OCCCn1cnc2c(Br)c(Br)c(Br)c(Br)c21 [Compound 3d, 3-(4,5,6,7-Tetrabromo-1H-benzimidazol-1-yl)propyl dodecanoate] |  |  |  | EC50 (MCF-7 cells [3]; [11]): > 100 µM; EC50 (MDA-MB-231 cells; [12]): > 100 µM
6 | 71 ± 9.5 | 59.1 ± 3.7 | 58 ± 4 | 34.8 ± 3.4 | 65 ± 2.8 | 24.4 ± 0.9 | 2.23 ± 0.07 | 29.3 ± 1.24 | 23.1 ± 0.77 | 21.5 ± 1.86 | 40.8 ± 1.58 | 27.8 ± 1.31 | 24.5 ± 0.48 | 96 to 97 | CCCC(=O)OCCCn1cnc2c(Br)c(Br)c(Br)c(Br)c21 [Compound 3a, (4,5,6,7-Tetrabromo-1H-benzimidazol-1-yl)propyl butanoate] | 57.8 | 13.8 | 28.4 | 
7 |  |  |  |  |  |  |  | > 100 | > 100 | > 100 | > 100 | > 100 | > 100 | 69 to 70 | CCCCCCCCCCCC(=O)OCCCn1c(C)nc2c(Br)c(Br)c(Br)c(Br)c21 [Compound 6d, (4,5,6,7-Tetrabromo-2-methyl-1H-benzimidazol-1-yl)propyl dodecanoate] |  |  |  | EC50 (MCF-7 cells [3]; [11]): > 100 µM; EC50 (MDA-MB-231 cells; [12]): > 100 µM
8 | 89.3 ± 8 | 83 ± 13 | 85.5 ± 8.3 | 83.1 ± 7.5 | 85 ± 0.1 | 74.2 ± 11.2 |  | 39.6 ± 1.06 | 28.4 ± 1.71 | 24.8 ± 1.33 | 95.6 ± 20.4 | 32.2 ± 3.26 | 27.3 ± 1.26 | 65 to 67 | CCCCCC(=O)OCCCn1cnc2c(Br)c(Br)c(Br)c(Br)c21 [Compound 3b, 3-(4,5,6,7-Tetrabromo-1H-benzimidazol-1-yl)propyl hexanoate] | 60.5 | 12.2 | 27.3 | 
